A short description of data set [1]: Plasma half-life of palonosetron. The class given is in vivo. To be noted: human.
Data set [2] in a line: Systemic exposure of palonosetron (plasma, HPLC-radioimmunoassay). Type of data set: in vivo, dogs. To be noted: 100 to 1000 μg/kg.

On to `Cl.O=C1c2cccc3c2[C@H](CCC3)CN1[C@@H]1CN2CCC1CC2` [Palonosetron, (3aS)-2,3,3a,4,5,6-Hexahydro-2-[(S)-1-Azabicyclo[2.2.2]oct-3-yl]2,3,3a,4,5,6-hexahydro-1-oxo-1Hbenz[de]isoquinoline hydrochloride], for which, in data set [1], the half-life was around 40 h. Moreover, the “dose proportionality of systemic exposure (AUC0-4hr)” value in data set [2] is “approximately dose-proportional”.

For orientation: half-life means how long it takes for the measured level to halve. A higher half-life goes with slow loss.

For the origin of these results see US20110178118A1, “PALONOSETRON FOR THE TREATMENT OF CHEMOTHERAPY INDUCED EMESES” (priority 2002, published 2011).
